Laboratory results published in US20070161637A1, “Substituted pyridin-2-ylamine analogues” (Neurogen Corporation, priority 2003, published 2007).

target: T1, human capsaicin receptor (Homo sapiens, UniProt Q8NER1); test: Calcium mobilization assay, determination of antagonist activity (Example 6); assay type: cell-based; conditions: concentration giving 50% decrease in the fluorescence response of cells expressing human capsaicin receptor exposed to capsaicin
T1 construct: transfected with the pBK-CMV expression construct encoding the full length human capsaicin receptor; expressed in transfected cells; host or cells: HEK293, stably transfected clonal lines, plasmid pBK-CMV
T1 sequence (Q8NER1 whole entry): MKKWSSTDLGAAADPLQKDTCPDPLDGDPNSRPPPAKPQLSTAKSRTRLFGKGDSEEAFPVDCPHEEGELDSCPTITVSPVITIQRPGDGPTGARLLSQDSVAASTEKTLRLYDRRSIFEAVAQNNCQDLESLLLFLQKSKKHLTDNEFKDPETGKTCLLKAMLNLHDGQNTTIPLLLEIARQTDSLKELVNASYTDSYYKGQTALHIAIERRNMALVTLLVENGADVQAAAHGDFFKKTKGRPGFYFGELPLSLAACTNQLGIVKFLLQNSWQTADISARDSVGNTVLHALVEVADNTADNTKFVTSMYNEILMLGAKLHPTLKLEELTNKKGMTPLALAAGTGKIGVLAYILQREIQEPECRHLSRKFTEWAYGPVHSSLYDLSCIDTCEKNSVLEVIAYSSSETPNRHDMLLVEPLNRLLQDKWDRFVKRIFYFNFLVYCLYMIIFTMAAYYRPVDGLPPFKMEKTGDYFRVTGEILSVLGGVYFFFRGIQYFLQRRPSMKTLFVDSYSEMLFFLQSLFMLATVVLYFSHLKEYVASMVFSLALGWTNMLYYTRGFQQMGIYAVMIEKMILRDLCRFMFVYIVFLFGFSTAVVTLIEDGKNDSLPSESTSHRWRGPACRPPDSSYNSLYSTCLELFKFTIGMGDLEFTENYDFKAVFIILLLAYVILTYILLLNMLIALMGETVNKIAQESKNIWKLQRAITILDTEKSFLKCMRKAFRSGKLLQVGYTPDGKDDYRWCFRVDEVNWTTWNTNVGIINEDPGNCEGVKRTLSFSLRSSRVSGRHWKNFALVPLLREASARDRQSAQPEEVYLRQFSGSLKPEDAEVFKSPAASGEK
Description: A cDNA encoding full length human capsaicin receptor (SEQ ID NO:1, 2 or 3 of U.S. Pat. No. 6,482,611) was subcloned in the plasmid pBK-CMV (Stratagene, La Jolla, Calif.) for recombinant expression in mammalian cells.
Human embryonic kidney (HEK293) cells were transfected with the pBK-CMV expression construct encoding the full length human capsaicin receptor using standard methods. The transfected cells were selected for two weeks in media containing G418 (400 μg/ml) to obtain a pool of stably transfected cells. Independent clones were isolated from this pool by limiting dilution to obtain clonal stable cell lines for use in subsequent experiments.
(§1) Cells transfected with expression plasmids (as described in Example 4) and thereby expressing human capsaicin receptor are seeded and grown to 70-90% confluency in FALCON black-walled, clear-bottomed 96-well plates (#3904, BECTON-DICKINSON, Franklin Lakes, N.J.). The culture medium is emptied from the 96 well plates and FLUO-3 AM calcium sensitive dye (Molecular Probes, Eugene, Oreg.) is added to each well (dye solution: 1 mg FLUO-3 AM, 440 μL DMSO and 440 μl 20% pluronic acid in DMSO, diluted 1:250 in Krebs-Ringer HEPES (KRH) buffer (25 mM HEPES, 5 mM KCl, 0.96 mM NaH2PO4, 1 mM MgSO4, 2 mM CaCl2, 5 mM glucose, 1 mM probenecid, pH 7.4), 50 μl diluted solution per well). Plates are covered with aluminum foil and incubated at 37° C. for 1-2 hours in an environment containing 5% CO2. After the incubation, the dye is emptied from the plates, and the cells are washed once with KRH buffer, and resuspended in KRH buffer.
To measure the ability of a test compound to agonize or antagonize a calcium mobilization response in cells expressing capsaicin receptors to capsaicin or other vanilloid agonist, the EC50 of the agonist capsaicin is first determined. An additional 20 μl of KRH buffer and 1 μl DMSO is added to each well of cells, prepared as described above. 100 μl capsaicin in KRH buffer is automatically transferred by the FLIPR instrument to each well. Capsaicin-induced calcium mobilization is monitored using either FLUOROSKAN ASCENT (Labsystems; Franklin, Mass.) or FLIPR (fluorometric imaging plate reader system; Molecular Devices, Sunnyvale, Calif.) instruments. Data obtained between 30 and 60 seconds after agonist application are used to generate an 8-point concentration response curve, with final capsaicin concentrations of 1 nM to 3 μM. […] software (Synergy Software, Reading, Pa.) is used to fit the data to the equation: y=a*(1/(1+(b/x)^c)) to determine the 50% excitatory concentration (EC50) for the response. In this equation, y is the maximum fluorescence signal, x is the concentration of the agonist or antagonist (in this case, capsaicin), a is the Emax, b corresponds to the EC50 value and c is the Hill coefficient. Determination Agonist Activity
Test compounds are dissolved in DMSO, diluted in 20 μl KRH buffer so that the final concentration of test compounds in the assay well is between 1 μM and 5 μM, and added to cells prepared as described above. The 96 well plates containing prepared cells and test compounds are incubated in the dark, at room temperature for 0.5 to 6 hours. It is important that the incubation not continue beyond 6 hours. Just prior to determining the fluorescence response, 100 μl capsaicin in KRH buffer at twice the EC50 concentration determined as described above is automatically added by the FLIPR instrument to each well of the 96 well plate for a final sample volume of 200 μl and a final capsaicin concentration equal to the EC50. The final concentration of test compounds in the assay wells is between 1 μM and 5 μM.

IC50 | Structure (SMILES)
≤ 1000 nM | COc1ccccc1COc1nc(Nc2ccc(C(C)(C)C)cc2)nc(OCc2ccccc2OC)n1 [Compound 13, [4,6-Bis-(2-methoxy-benzyloxy)-[1,3,5]triazin-2-yl]-(4-tert-butyl-phenyl)-amine]
≤ 1000 nM | FC(F)(F)c1ccc(Nc2nc(NC3CCC3)nc(OCc3ccccc3C(F)(F)F)n2)cc1 [Compound 63, N-Cyclobutyl-6-(2-trifluoromethyl-benzyloxy)-N′-(4-trifluoromethyl-phenyl)-[1,3,5]triazine-2,4-diamine]
≤ 1000 nM | FC(F)(F)c1ccc(Nc2nc(Cl)nc(OCc3ccccc3C(F)(F)F)n2)cc1 [Compound 18, [4-Chloro-6-(2-trifluoromethyl-benzyloxy)-[1,3,5]triazin-2-yl]-(4-trifluoromethyl-phenyl)-amine]
≤ 1000 nM | CC(C)(C)c1ccc(Nc2nc(N)nc(OCc3ccccc3F)n2)cc1 [Compound 31, N-(4-tert-Butyl-phenyl)-6-(2-fluoro-benzyloxy)-[1,3,5]triazine-2,4-diamine]
≤ 1000 nM | COc1cc2c(cc1OC)CN(c1nc(Cl)nc(Nc3ccc(C(C)(C)C)cc3)n1)C(C)C2 (stereo not shown) [Compound 7, (4-tert-Butyl-phenyl)-[4-chloro-6-(6,7-dimethoxy-3-methyl-3,4-dihydro-1H-isoquinolin-2-yl)-[1,3,5]triazin-2-yl]-amine]
≤ 1000 nM | CC(C)(C)c1ccc(Nc2cc(NCc3cccnc3)ncn2)cc1 [Compound 57, N-(4-tert-Butyl-phenyl)-N′-pyridin-3-ylmethyl-pyrimidine-4,6-diamine]
≤ 1000 nM | FC(F)(F)c1ccc(Nc2nc(OCc3ccccc3C(F)(F)F)nc(OCc3ccccc3C(F)(F)F)n2)cc1 [Compound 15, [4,6-Bis-(2-trifluoromethyl-benzyloxy)-[1,3,5]triazin-2-yl]-(4-trifluoromethyl-phenyl)-amine]
≤ 1000 nM | COc1ccccc1CNc1nc(NCc2ccccc2OC)nc(Nc2ccc(C(C)(C)C)cc2)n1 [Compound 55, N-(4-tert-Butyl-phenyl)-N′,N″-bis-(2-methoxy-benzyl)-[1,3,5]triazine-2,4,6-triamine]
≤ 1000 nM | CC(C)(C)c1ccc(Nc2cc(NCc3ccccn3)ncn2)cc1 [Compound 56, N-(4-tert-Butyl-phenyl)-N′-pyridin-2-ylmethyl-pyrimidine-4,6-diamine]
≤ 1000 nM | CC(C)(C)c1ccc(Nc2nc(N)nc(NCc3ccccc3F)n2)cc1 [Compound 43, N-(4-tert-Butyl-phenyl)-N′-(2-fluoro-benzyl)-[1,3,5]triazine-2,4,6-triamine]
≤ 1000 nM | FC(F)(F)c1ccc(Nc2nc(OCc3ccccc3C(F)(F)F)nc(-c3ccccc3Cl)n2)cc1 [Compound 9, [4-(2-Chloro-phenyl)-6-(2-trifluoromethyl-benzyloxy)-[1,3,5]triazin-2-yl]-(4-trifluoromethyl-phenyl)-amine]
≤ 1000 nM | CC(C)(C)c1ccc(Nc2nc(Cl)nc(OCc3ccccc3C(F)(F)F)n2)cc1 [Compound 4, (4-tert-Butyl-phenyl)-[4-chloro-6-(2-trifluoromethyl-benzyloxy)-[1,3,5]triazin-2-yl]-amine]
≤ 1000 nM | COc1nc(NCc2ccccc2Cl)nc(Nc2ccc(C(C)(C)C)cc2)n1 [Compound 39, N-(4-tert-Butyl-phenyl)-N′-(2-chloro-benzyl)-6-methoxy-[1,3,5]triazine-2,4-diamine]
≤ 1000 nM | COc1ccccc1CNc1cc(Nc2ccc(C(C)(C)C)cc2)ncn1 [Compound 47, N-(4-tert-Butyl-phenyl)-N′-(2-methoxy-benzyl)-pyrimidine-4,6-diamine]
≤ 1000 nM | CC(C)(C)Nc1nc(Nc2ccc(C(F)(F)F)cc2)nc(OCc2ccccc2C(F)(F)F)n1 [Compound 68, N-tert-Butyl-6-(2-trifluoromethyl-benzyloxy)-N′-(4-trifluoromethyl-phenyl)-[1,3,5]triazine-2,4-diamine]
≤ 1000 nM | CC(C)Nc1nc(Nc2ccc(C(F)(F)F)cc2)nc(OCc2ccccc2C(F)(F)F)n1 [Compound 67, N-Isopropyl-6-(2-trifluoromethyl-benzyloxy)-N′-(4-trifluoromethyl-phenyl)-[1,3,5]triazine-2,4-diamine]
≤ 1000 nM | CC(C)(C)c1ccc(Nc2nc(Cl)nc(N3CCc4ccccc4C3)n2)cc1 [Compound 5, (4-tert-Butyl-phenyl)-[4-chloro-6-(3,4-dihydro-1H-isoquinolin-2-yl)-[1,3,5]triazin-2-yl]-amine]
≤ 1000 nM | CC(C)(C)c1ccc(Nc2nc(Cl)nc(NCc3ccccc3C(F)(F)F)n2)cc1 [Compound 36, N-(4-tert-Butyl-phenyl)-6-chloro-N′-(2-trifluoromethyl-benzyl)-[1,3,5]triazine-2,4-diamine]

target: T1, human capsaicin receptor; test: Calcium mobilization assay, capsaicin agonist response (Example 6); assay type: cell-based; conditions: capsaicin positive control, cells expressing human capsaicin receptor; read-out: approximate EC90 concentration
Description: as §1, with “Plates are covered with aluminum foil and incubated at 37° C. for 1-2 hours in an environment containing 5% CO2. After the incubation, the dye is emptied from the plates, and the cells are washed once with KRH buffer, and resuspended in KRH buffer.” left out
To measure the ability of a test compound to agonize or antagonize a calcium mobilization response in cells expressing capsaicin receptors to capsaicin or other vanilloid agonist, the EC50 of the agonist capsaicin is first determined. […] Capsaicin-induced calcium mobilization is monitored using either FLUOROSKAN ASCENT (Labsystems; Franklin, Mass.) or FLIPR (fluorometric imaging plate reader system; Molecular Devices, Sunnyvale, Calif.) instruments. […] In this equation, y is the maximum fluorescence signal, x is the concentration of the agonist or antagonist (in this case, capsaicin), a is the Emax, b corresponds to the EC50 value and c is the Hill coefficient. […]

EC90 | Structure (SMILES)
~100 nM | COc1cc(CNC(=O)CCCC/C=C/C(C)C)ccc1O [capsaicin]
